Marks after values point to notes of the source that are not given here.
Assays:
ycfF = target: T1, ycfF (Escherichia coli, UniProt P0ACE7); assay: Catalytic activity (velocity) of cloned, purified phosphoramidase with AMPNH2; type: biochemical, E. coli; details: pH 7.2, room temperature, 10 mM AMPNH2
T1 construct: made in house
Experimental: The putative bacterial phosphoramidase was cloned and over-expressed as described for the human homologue, and found to be a nucleoside phosphoramidase.
Velocity of the enzymes was determined at pH 7.2 at room temperature in the presence of 10 mM AMPNH2.

[1] = system: BB2-1 (-HINT) cell lysates; assay: 31P NMR phosphoramidase activity in cell lysates of hinT deletion strain; type: biochemical, E. coli
Experimental: (§1) Phosphoramidase activity in cell lysates was measured by the ^1H-decoupling mode of phosphorus-31 NMR spectroscopy (Varian VAC-300 spectrometer), which can clearly distinguish the substrate, AMP-NH2, and the product, adenosine 5′-monophosphate (AMP). NMR spectrometry is suitable for quantitation by integration of the area under the peak, which is proportional to the amount of nuclei present. The relative ratio of peak areas can be used to calculate the amount of turnover corrected based on a standard curve.
Cell lysates from E. coli Tuner(DE3)pLacI cells (Novagen) were obtained by treatment with lysozyme (1 mg/ml) and the DNA was precipitated by protamine sulfate followed by centrifugation to remove cell debris. The supernatant was dialyzed extensively against Buffer A (20 mM Tris (pH 7.0); 1 mM EDTA; 1 mM DTT, 0.01 mM PMSF) to remove cellular phosphates and nucleotides. […] The reactions were terminated by snap freezing in a dry ice/acetone slush bath and lyophilized for 5 h. The samples were then dissolved in NMR buffer (600 μL, 50 mM EDTA, 20 mM HEPES (pH 7.2), and 1 mM TMP (trimethylphosphate, internal standard)) and the insoluble portion was spun down by centrifugation at 12,500×g for 5 min. A ^31P NMR spectrum was then collected for the supernatant. For the low pH control experiment, 10 mM AMP-NH2 in reaction buffer (500 μL, pH 2.0) was incubated at 37° C. for 12 h and the 31p signal was detected under the same conditions.
The E. coli hinT gene in strain BW25113 was disrupted as previously described (Datsenko & Wanner, 2000, PNAS USA, 97:6640-6645). Plasmid pKD3 and primers 7024 and 7025 (Table 2) were used for amplification of the chloramphenicol resistance marker (Cm^r). Stable chloramphenicol resistant transformants of BW25113 were tested by PCR with primers 7026 and 7027 to confirm correct recombination of the Cm^r marker into the hinT locus. A strain that tested positive by PCR was named BB1. Strain BB3 was constructed by removing the antibiotic resistance marker using Red recombinase as described previously (Datsenko & Wanner, supra). The hinT gene was amplified from the chromosomal DNA of E. coli strain BW25113 with primers 7328 and 7329. The product of this reaction was cloned into Bluescript SK+ using EcoRI and BamHI sites included in the primers' sequences. The resulting plasmid was named pB429. […] Plasmids pB432 and pB433 were obtained by cloning HindIII-EcoRI fragments containing wild type and H101A mutated alleles of hinT from plasmids pB429 and pB431 into plasmid pACYC184. All E. coli transformations were performed by electroporation.
To determine if E. coli hinT is solely responsible of the observed lysates' phosphoramidase activity, a mutant strain, BB1, in which the hinT gene was replace with the chloramphenicol resistance marker, was constructed. The phosphoramidase activities of the wild-type E. coli BL21 Star strain and the mutant strain lysates were determined (Table 3). […] (Table 2). Therefore, the adenosine phosphoramidase activity observed for E. coli cell lysates appears to be totally dependent on hinT.

hHINT1 = hHINT1 (Homo sapiens, UniProt P49773); details: literature (J. Biol. Chem. 2004, 279, 18711; 2002, 277, 10852); cited from earlier work
Yeast HNT = target: T2, Yeast HNT (Saccharomyces cerevisiae, UniProt Q04344); details: Bieganowski et al, 2002; cited from earlier work
T2 sequence (Q04344 1-158): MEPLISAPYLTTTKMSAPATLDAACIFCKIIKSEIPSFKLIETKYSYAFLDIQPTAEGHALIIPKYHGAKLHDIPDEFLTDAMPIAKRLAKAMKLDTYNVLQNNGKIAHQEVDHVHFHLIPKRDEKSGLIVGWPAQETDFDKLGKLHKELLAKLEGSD

[2] = target: T3, E. coli Tuner(DE3)pLacI cell lysates (Escherichia coli, UniProt P0ACE7); assay: 31P NMR phosphoramidase activity in cell lysates; type: biochemical
T3 construct: Cell lysates from E. coli Tuner(DE3)pLacI cells (Novagen) were obtained by treatment with lysozyme; host or cells: E. coli Tuner(DE3)pLacI
Experimental: as §1
Cell lysates from E. coli Tuner(DE3)pLacI cells (Novagen) were obtained by treatment with lysozyme (1 mg/ml) and the DNA was precipitated by protamine sulfate followed by centrifugation to remove cell debris. The supernatant was dialyzed extensively against Buffer A (20 mM Tris (pH 7.0); 1 mM EDTA; 1 mM DTT, 0.01 mM PMSF) to remove cellular phosphates and nucleotides. Phosphate free cell lysates (0.75 mg total protein) were incubated with 5 mM AMP-NH2 in 0.5 ml reaction buffer (0.5 mM MgCl2, 20 mM HEPES (pH 7.2)) at 37° C. for intervals of 15 min, 30 min, and 12 h. The reactions were terminated by snap freezing in a dry ice/acetone slush bath and lyophilized for 5 h. […] For the low pH control experiment, 10 mM AMP-NH2 in reaction buffer (500 μL, pH 2.0) was incubated at 37° C. for 12 h and the 31p signal was detected under the same conditions. […]

Sequence of hHINT1 (P49773 whole entry): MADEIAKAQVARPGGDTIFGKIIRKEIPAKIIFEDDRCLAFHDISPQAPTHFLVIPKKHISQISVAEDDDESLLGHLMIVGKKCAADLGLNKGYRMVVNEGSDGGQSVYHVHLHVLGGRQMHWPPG
T3 sequence (P0ACE7 whole entry): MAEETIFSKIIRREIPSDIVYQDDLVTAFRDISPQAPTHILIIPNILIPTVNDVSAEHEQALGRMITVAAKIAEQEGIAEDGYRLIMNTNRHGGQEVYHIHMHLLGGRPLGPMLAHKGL
T1 sequence (P0ACE7 whole entry): as above

With `Nc1ncnc2c1ncn2[C@@H]1O[C@H](COP(N)(=O)O)[C@@H](O)[C@H]1O` [AMP-NH2, Adenosine 5′-monophosphoramidate] the Velocity (ycfF) was 14.19 nmol/µg/min, the “AMP formation with lysates of hinT deletion strain BB1” value [1] was “no AMP formation could be observed” and the “Specific activity” value ([1]; 0.2 mg protein, 30 min) was 0 nmol/mg/min. For the same molecule, the “Specific activity” value ([1]; 0.5 mg protein, 30 min) was 0 nmol/mg/min, the “Specific activity” value ([1]; 0.5 mg protein, 70 min) was 0 nmol/mg/min and the “Specific activity” value ([1]; 0.5 mg protein, 1380 min) was 0 nmol/mg/min. The Average specific activity ([1]; average) was 0 nmol/mg/min, the Kcat (hHINT1) was 0.2 s⁻¹ and the Km (hHINT1) was 0.068 µM. For the same molecule, the Velocity (Yeast HNT) was 7.57^b nmol/μg/min, the “Extent of hydrolysis to AMP” value ([2]; 12 h incubation, 37° C.) was “complete hydrolysis” and the “Hydrolysis rate by E. coli cell lysates” value ([2]; pH 7.0, 37° C., 5 mM, averaged for 15 min and 30 min) was 76.3 (±20.9) nmol mg^−1 min^−1.

From US20060014193A1, “Nucleoside phosphoramidates and nucleoside phosphoramidases” (priority 2004, published 2006)
